Patent publication US10017741B2, “Compositions and methods for obtaining enriched mesenchymal stem cell cultures” (StemCell Technologies Inc., priority 2013, dated 2018)
“And” between values parts separate entries of the source, which are not always exact repeats. Equal values may be shown once.

What was measured:
[1] = tested on: BM-derived cultures (CD45+/CD11b+ macrophages, Sca1+ monocytes); assay: Flow cytometry of BM-derived expansion cultures; format: cell-based, mouse
Procedure: (§1) c. Expansion of Human BM and Mouse BM and CB-Derived Cells Assay • 1. […] Cultures were allowed to grow for 10-14 days until adherent cells achieved 70 to 80% confluence. Mouse cultures were maintained under normal (5% CO2) or hypoxic conditions (5% CO2/5% O2) at 37 C in a cell culture incubator. Human cultures were maintained under 5% CO2 at 37 C in a humidified cell culture incubator. • 3. Adherent cells were passaged by releasing cultures from flask. Cultures were washed with 5 mL PBS and then 5 mL of 0.25% trypsin solution ([…] catalogue #07901) was added and the flasks incubated for 10 min at 37 C. To each flask, 5 mL complete medium was added to stop trypsin activity. • 4. Released cells were collected into a tube and centrifuged at 300×g for 5 minutes. • 5. Cells were resuspended in 2 mL of medium and counted using a hemocytometer. • 6. […] P1 cultures were incubated until they reached 70 to 80% confluence. • 8. Passaged cultures can be used at any time from P0 to P10 as needed for different applications.
(§2) d. Flow Cytometry Analysis • 1. Cultures of BM and CB-derived cells were trypsinized for 10 minutes and an equal volume of complete medium was added to cultures to stop trypsin activity • 2. Cell suspension was filtered through a 40 μm strainer, and cells counted using a hemocytometer • 3. Suspension was spun down at 300×g for 5 minutes. • 4. Supernatant was removed and cell pellet resuspended in FACS buffer (PBS with 2% FBS and 1 mM EDTA) • 5. A total of 1×10^5 cells in 300 μL FACS buffer was used for each flow cytometry analysis tube, including unstained, viability, compensation, and isotype controls. • 6. Cell suspensions were stained with fluorophore-labeled antibodies against CD45, CD11b, and Sca1, CD29, and viability dye. • 7. Cell suspensions were analyzed on a flow cytometer using compensation and isotype control to determine laser voltage and gating. • 8. Samples were gated on viable CD45^+ cells and 10,000 events per sample were collected. Alternatively, cells were gated on viable CD45^− cells and out of this gate the proportion of CD29+/Sca1^+ cells obtained.

[2] = tested on: BM-MSCs (CD45−/CD29+/Sca1+); assay: Total cell count with flow cytometry, BM-MSC cultures; format: cell-based, mouse
Procedure: as §2
Prior to flow cytometry, control and GW2580-treated cultures of BM- and CB-MSC were dissociated from tissue culture flasks by trypsinization and the total number of cells counted with the aid of a hemocytometer. Flow cytometry analysis was performed and the ratio of CD45^− cells and CD45^−/CD29^+/Sca1^+ cells applied to the total number of cells to obtain the actual number of these cells in culture (Table 2).

[3] = tested on: CSF-1-independent cell line, human fibroblasts, and other endothelial cells; settings: cited from earlier work
[4] = tested on: mouse BM-MSC cultures; assay: Osteogenic and adipogenic differentiation of mouse BM-MSC; format: cell-based
Procedure: During the process of culture, expansion, or maintenance of MSCs, it is imperative that these cells maintain their functional properties so they can be used for specific downstream applications, including characterization by differentiation. […] BM-MSCs that were initially exposed to vehicle- or GW2580-containing media were plated at 3 different densities (FIG. 18A) in MesenCult Proliferation Medium and allowed to adhere to the plates overnight. Cultures were then differentiated for 14 days in MesenCult Osteogenic Medium, and the medium changed every 3 days. Osteogenic cultures were then fixed and stained for alkaline phosphates (ALP) activity (red areas) and mineralization (black areas). In control cultures ([…]), a modest differentiation into the osteogenic lineage was only observed when cultures were seeded at the highest density of 1.2×10^5 cells/cm^2. […] Cultures were then differentiated for 14 days into the adipogenic and osteogenic lineages (FIG. 18B).

[5] = tested on: mouse CB-MSC cultures; assay: Osteogenic and adipogenic differentiation of mouse CB-MSC; format: cell-based
[6] = tested on: CB-derived cultures (CD45+/CD11b+ macrophages, Sca1+ monocytes); assay: Flow cytometry of CB-derived expansion cultures; format: cell-based, mouse
Procedure: as §1, §2

[7] = BM-MSCs, 2.5 uM GW2580, 14 days during P0
[8] = CB, 1 μM P0-P1 then vehicle P2-P3, analysed at P3, adherent cells
[9] = CB, 1 μM P0-P1 then vehicle P2-P3, analysed at P3, non-adherent cells
[10] = CB, P4, DMSO P0-P2 then 1 μM GW2580 P3-P4, or P4 control cultures EasySep-enriched

COc1ccc(COc2ccc(Cc3cnc(N)nc3N)cc2OC)cc1 [GW2580, 5-(3-Methoxy-4-((4-methoxybenzyl)oxy)benzyl)pyrimidine-2,4-diamine]
number of CD45+/CD11b+/Sca1+ cells ([1]; BM, 1 μM): 55% | number of CD45+ cells ([1]; BM, 1 μM (control 52%)): 45% | CD11b+/Sca1+ hematopoietic monocytes, of CD45+ cells ([1]; BM, 1 μM P0 to P2): 44% | CD11b+/Sca1− mature macrophages, of CD45+ cells ([1]; BM, 1 μM P0 to P2): 56% | overall reduction in CD45+ cells ([1]; BM, 1 μM P0 to P2): 18% | reduction in CD45+/CD11b+/Sca1+ monocyte differentiation into mature macrophage (increase in Sca1+ fraction vs control) ([1]; BM, 1 μM P0 to P2): 36% | CD11b+/Sca1+ hematopoietic monocytes, of CD45+ cells ([1]; BM, 1 μM P0 to P3): 52% | CD11b+/Sca1− mature macrophages, of CD45+ cells ([1]; BM, 1 μM P0 to P3): 41% | overall reduction in CD45+ cells ([1]; BM, 1 μM P0 to P3): 64% | reduction in CD45+/CD11b+/Sca1+ monocyte differentiation into macrophages (monocytes prevented from differentiating) ([1]; BM, 1 μM P0 to P3): > 50% and 52% | reduction in CD45+/CD11b+/Sca1− mature macrophage differentiation ([1]; BM, 1 μM, at P3): > 50% | number of CD45+/CD11b+/Sca1+ cells ([1]; BM, 5 μM): 40% | number of CD45+ cells ([1]; BM, 5 μM (control 52%)): 33% | number of CD45+/CD11b+/Sca1+ cells ([1]; BM, 10 μM): 34% | number of CD45+ cells ([1]; BM, 10 μM (control 52%)): 28% | CD45+/CD11b+ mature macrophages, of total viable cells ([1]; BM, P1, 1 μM): 60% and 62% | reduction in macrophages vs control ([1]; BM, P1, 1 μM): 20% | CD45+/CD11b+ mature macrophages, of viable cells ([1]; BM-derived cultures, 1 μM up to P2): < 1% | actual increase in BM-MSCs (CD45−/CD29+/Sca1+) vs control ([2]; BM-MSC, 2.5 uM GW2580): 0.25 fold | increase in number of CD45−/CD29+/Sca1+ MSCs vs control ([2]; BM-MSC, 2.5 uM GW2580): 26% | Actual number of cells, CD45− [2, 7]: 665,331 | Actual number of cells, CD45−/CD29+/Scal+ [2, 7]: 639,450 | CD45−, Percent (Flow Cytometry) [2, 7]: 70.48% | total cells [2, 7]: 9.44E+05 | CD45−/CD29+/Scal+, Percent (Flow Cytometry) ([2]; BM-MSCs, 2.5 uM GW2580, 14 days during P0, out of CD45− gate): 96.11% | sensitivity of CSF-1-independent cell line, human fibroblasts and other endothelial cells to GW2580 [3]: highly resistant | osteogenic differentiation (ALP activity, mineralization) ([4]; BM-MSC, 1 uM for 2 passages, seeded at 4.0×10^4 cells/cm^2, 14 days): a significant and robust increase in osteogenic differentiation | adipogenic and osteogenic differentiation (Oil Red O, ALP/mineralization) ([4]; BM-MSC, 2.5 uM for 2 passages, plated at 4.0×10^4 cells/cm^2, 14 days): substantial adipogenic and osteogenic differentiation | differentiation into osteogenic and adipogenic lineages vs control cultures ([4]; mouse BM-MSC exposed to GW2580 during expansion): stronger and more robust differentiation | adipogenic and osteogenic differentiation (Oil Red O, ALP/mineralization) ([5]; CB-MSC, 2.5 uM for 2 passages, plated at 4.0×10^4 cells/cm^2, 14 days): substantial adipogenic and osteogenic differentiation | differentiation into osteogenic and adipogenic lineages vs control cultures ([5]; mouse CB-MSC exposed to GW2580 during expansion): stronger and more robust differentiation | dose-response increase in CD45+/CD11b+/Sca1+ hematopoietic monocytes ([6]; CB, 1 μM): 18% | number of CD45+/CD11b+/Sca1+ monocytes ([6]; CB, 1 μM (control 7%)): 25% | number of CD45+ cells ([6]; CB, 1 μM (control 78%)): 64% | CD45+/CD11b+ mature macrophages ([6]; CB, 1 μM (control 93%)): 75% | CD45+/CD11b+/Sca1+ monocytes, of CD45+ cells [6, 8]: 2% | CD45+/CD11b+/Sca1− mature macrophages, of CD45+ cells [6, 8]: 97% | CD45+/CD11b+/Sca1+ monocytes, of CD45+ cells [6, 9]: < 1% | CD45+/CD11b+/Sca1− mature macrophages, of CD45+ cells [6, 9]: 99% | CD11b+/Sca1+ hematopoietic monocytes, of CD45+ cells ([6]; CB, 1 μM P0 to P2): 28% | CD11b+/Sca1− mature macrophages, of CD45+ cells ([6]; CB, 1 μM P0 to P2): 62% | overall reduction in CD45+ cells ([6]; CB, 1 μM P0 to P2): 15% | reduction in CD45+/CD11b+/Sca1+ monocyte differentiation into mature macrophage (increase in Sca1+ fraction vs control) ([6]; CB, 1 μM P0 to P2): 22% | CD11b+/Sca1+ hematopoietic monocytes, of CD45+ cells ([6]; CB, 1 μM P0 to P3): 20% | CD11b+/Sca1− mature macrophages, of CD45+ cells ([6]; CB, 1 μM P0 to P3): 76% | overall reduction in CD45+ cells ([6]; CB, 1 μM P0 to P3): 55% | reduction in CD45+/CD11b+/Sca1+ monocyte differentiation into macrophage (increase in Sca1+ cells vs control) ([6]; CB, 1 μM P0 to P3): 8% | reduction in CD45+/CD11b+/Sca1− mature macrophage differentiation ([6]; CB, 1 μM, at P3): 12% | dose-response increase in CD45+/CD11b+/Sca1+ hematopoietic monocytes ([6]; CB, 5 μM): 32% | number of CD45+/CD11b+/Sca1+ monocytes ([6]; CB, 5 μM (control 7%)): 39% | number of CD45+ cells ([6]; CB, 5 μM (control 78%)): 36% | CD45+/CD11b+ mature macrophages ([6]; CB, 5 μM (control 93%)): 60% | dose-response increase in CD45+/CD11b+/Sca1+ hematopoietic monocytes ([6]; CB, 10 μM): 41% | number of CD45+/CD11b+/Sca1+ monocytes ([6]; CB, 10 μM (control 7%)): 48% | number of CD45+ cells ([6]; CB, 10 μM (control 78%)): 30% | CD45+/CD11b+ mature macrophages ([6]; CB, 10 μM (control 93%)): 50% | CD45+/CD11b+ mature macrophages, of total viable cells ([6]; CB, P1, 1 μM): 34% | reduction in macrophages vs control ([6]; CB, P1, 1 μM): 50% | CD11b+/Sca1+ monocytes, of CD45+ cells [6, 10]: about 75% | CD11b+/Sca1− mature macrophages, of CD45+ cells [6, 10]: around 25% | CD45+/CD11b+ mature macrophages, of viable cells ([6]; CB-derived cultures, 1 μM up to P2): < 1%
